Drawing on patent US8916599B2, “1H-benz imidazole-5-carboxamides as anti-inflammatory agents” (Orexo AB, priority 2008, dated 2014), this text covers inhibition for 29 compounds.

The first test addresses T1, recombinant human mPGES-1 (Homo sapiens, UniProt O14684).
T1 construct: made in house; host or cells: Rosetta E. coli (microsomal/membrane fraction)
T1 sequence (O14684 1-152): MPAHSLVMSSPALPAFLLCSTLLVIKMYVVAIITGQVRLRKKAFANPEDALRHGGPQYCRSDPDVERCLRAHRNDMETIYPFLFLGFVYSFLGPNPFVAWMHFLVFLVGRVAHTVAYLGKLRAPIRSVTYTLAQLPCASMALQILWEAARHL
Briefly: mPGES-1 inhibition test (microsomes, PGH2 substrate, HTRF detection of PGE2). The class given is biochemical. The following applies: inhibition of mPGES-1 at 1 μM (marked in cell). The method, then: Microsomes from Rosetta E. coli bacteria expressing recombinant human mPGES-1 is dissolved in 0.1 M KPi pH 7.4 buffer containing 2.5 mM GSH. 50 μl of the enzyme is subsequently dispensed in a 384-well plate. 0.5 μl of the inhibitor dissolved in DMSO at is thereafter added to each well and incubated for 25 minutes at room temperature. Subsequently, 2 μl of PGH2 dissolved in an appropriate solvent is added to each well and after one minute the acidified stop solution containing FeCl2 is added. 4 μl of the total volume is transferred to a separate plate and diluted 750-fold in two separate steps before HTRF detection of PGE2.
The HTRf detection is performed by the use of a commercially available kit from CisBio essentially according to the manufacturer's protocol. Briefly, 10 μl of the diluted sample is transferred to a white 384-well plate. 5 μl of d2 and 5 μl Eu3+-Cryptate labeled anti-PGE2 is added to each well containing samples by the use of a Multidrop. The plate is covered with a plastic self-adhesive film, centrifuged at 1200 rpm for 1 minute and subsequently stored at +4° C. over night.
After over night incubation the fluorescence is measured by the use of an appropriate microplate reader. The fluorescence of europium cryptate, and d2 are measured using the following excitation and emission wavelength, europium cryptate: λmax^ex=307 nm, λmax^em=620 nm and d2: λmax^ex=620 nm, λmax^em=665 nm), respectively. The extent of the specific FRET is measured as a ratio of the emission intensity at 665 nm vs. that at 620 nm. A standard curve using synthetic PGE2 is used to quantify the amount of PGE2 in unknown samples.
For `COc1cc2c(cc1C(=O)NC1CCC(C)(C)CC1)nc(Nc1c(F)c(F)cc(F)c1F)n2C` [Example 652, 2-(2,3,5,6-tetrafluoro-phenylamino)-6-methoxy-N-(4,4-dimethy-cyclohex-1-yl)-1-methyl-1H-benzimidazole-5-carboxamide], the inhibition at 1 µM worked out at 94%.

Regarding `COc1cc2c(cc1C(=O)NC1CCCCC1)nc(Nc1c(Cl)ccc(C)c1F)n2C` [Example 651, 2-(6-Chloro-2-fluoro-3-methyl-phenylamino)-6-methoxy-N-cyclohexyl-1-methyl-1H-benzimidazole-5-carboxamide], the inhibition at 1 µM came to 100%.

In the case of `O=C(Nc1cccc(C(F)(F)F)c1)c1ccc2[nH]c(Nc3c(Cl)cccc3Cl)nc2c1` [Example 283, 2-(2,6-Dichloro-phenylamino)-1H-benzimidazole-5-carboxylic acid (3-trifluoromethyl-phenyl)-amide], the inhibition at 1 µM stood at 100%.

Staying with this test, now noted: inhibition of mPGES-1 at 10 μM.
For the compound `Cc1cc(C)nc(NC(=O)c2cc3nc(Nc4c(Cl)cccc4Cl)n(C)c3cc2F)c1` [Example 128, 2-(2,6-Dichloro-phenylamino)-6-fluoro-1-methyl-1H-benzimidazole-5-carboxylic acid (4,6-dimethyl-pyridin-2-yl)-amide], the inhibition at 10 µM was 100%.

On to `Cn1c(Nc2ccccc2OC(F)(F)F)nc2cc(C(=O)Nc3ccc(Br)cc3)ccc21` [Example 320, 1-Methyl-2-(2-trifluoromethoxy-phenylamino)-1H-benzimidazole-5-carboxylic acid (4-bromo-phenyl)-amide], for which the inhibition at 10 µM stood at 100%.

Regarding `COc1cc2[nH]c(Nc3c(Cl)cc(F)cc3Cl)nc2cc1C(=O)N[C@H]1CC[C@H](C(F)(F)F)CC1` [Example 579, 2-(2,6-Dichloro-4-fluoro-phenylamino)-6-methoxy-N-(trans-4-trifluoromethyl-cyclohex-1-yl)-1H-benzimidazole-5-carboxamide], the inhibition at 10 µM amounted to 100%.

For the compound `COc1cc2c(cc1C(=O)NCc1ncccc1C)nc(Nc1c(Cl)cccc1Cl)n2C` [Example 465, 2-(2,6-Dichlorophenylamino)-6-methoxy-1-methyl-N-((3-methylpyridin-2-yl)methyl)-1H-benzimidazole-5-carboxamide], the inhibition at 10 µM was found to be 100%.

As to `O=C(Nc1ccc(Br)cc1)c1cc2[nH]c(Nc3c(Cl)cccc3Cl)nc2c(F)c1F` [Example 395, N-(4-Bromophenyl)-2-(2,6-dichlorophenylamino)-4,5-difluoro-1H-benzimidazole-6-carboxamide], the inhibition at 10 µM came to 100%.

As to `O=C(Nc1ccc(Br)cc1)c1cc2[nH]c(Nc3c(Cl)cccc3Cl)nc2cc1F` [Example 144, 2-(2,6-Dichloro-phenylamino)-6-fluoro-3H-benzimidazole-5-carboxylic acid (4-bromo-phenyl)-amide], the inhibition at 10 µM came out at 97%.

For `COc1cc2c(cc1C(=O)NCc1ncccc1OC)nc(Nc1c(Cl)cccc1Cl)n2C` [Example 491, 2-(2,6-Dichlorophenylamino)-6-methoxy-N-((3-methoxypyridin-2-yl)-methyl)-1-methyl-1H-benzimidazole-5-carboxamide], the inhibition at 10 µM was 99%.

For the compound `Cn1c(Nc2c(Cl)cccc2Cl)nc2cc(C(=O)NC3CCC(C(F)(F)F)CC3)ccc21` (centres unmarked) [Example 256, 2-(2,6-Dichloro-phenylamino)-1-methyl-1H-benzimidazole-5-carboxylic acid (4-trifluoromethyl-cyclohexyl)-amide], the inhibition at 10 µM was found to be 100%.

On to `O=C(Nc1ccc(Br)cc1)c1cc2nc(Nc3c(Cl)cc(F)cc3Cl)[nH]c2cc1OCC(F)(F)F` [Example 582, 2-(2,6-Dichloro-4-fluoro-phenylamino)-N-(4-bromo-phenyl)-6-(2,2,2-trifluorethoxy)-1H-benzimidazole-5-carboxamide], for which the inhibition at 10 µM was found to be 100%.

Turning to `Cn1c(Nc2c(Cl)cccc2Cl)nc2cc(C(=O)NC3CCCCC3)c(F)cc21` [Example 159, 2-(2,6-Dichloro-phenylamino)-6-fluoro-1-methyl-1H-benzimidazole-5-carboxylic acid cyclohexylamide], the inhibition at 10 µM was found to be 98%.

On to `Cn1c(Nc2c(Cl)cccc2Cl)nc2cc(C(=O)NCCc3cccnc3)ccc21` [Example 259, 2-(2,6-Dichloro-phenylamino)-1-methyl-1H-benzimidazole-5-carboxylic acid (2-pyridin-3-yl-ethyl)-amide], for which the inhibition at 10 µM stood at 89%.

On to `N#Cc1cccc(NC(=O)c2ccc3[nH]c(Nc4c(Cl)cccc4Cl)nc3c2)c1` [Example 22, 2-(2,6-Dichloro-phenylamino)-1H-benzimidazole-5-carboxylic acid (3-cyano-phenyl)-amide], for which the inhibition at 10 µM came to 100%.

In the case of `COc1cc2[nH]c(Nc3c(Cl)cccc3Cl)nc2cc1C(=O)N[C@H]1CC[C@H](C(F)(F)F)CC1` [Example 376, 2-(2,6-Dichlorophenylamino)-6-methoxy-N-((1r,4r)-4-trifluoromethyl-cyclohexyl)-1H-benzimidazole-5-carboxamide], the inhibition at 10 µM stood at 100%.

For the compound `COc1cc2c(cc1C(=O)NCc1ncccc1Cl)nc(Nc1c(Cl)cccc1Cl)n2C` [Example 631], the inhibition at 10 µM was found to be 100%.

As for `O=C(Nc1ccccc1)c1ccc2[nH]c(Nc3ccccc3Cl)nc2c1` [Example 9, 2-(2-Chloro-phenylamino)-1H-benzimidazole-5-carboxylic acid-phenylamide], the inhibition at 10 µM worked out at 93%.

Regarding `Cn1c(Nc2c(Cl)cc(F)cc2Cl)nc2cc(C(=O)NCc3ncccc3C(F)(F)F)ccc21` [Example 542, 2-(2,6-Dichloro-4-fluorophenylamino)-1-methyl-N-((3-trifluoromethyl-pyridin-2-yl)methyl)-1H-benzimidazole-5-carboxamide], the inhibition at 10 µM was 97%.

In the case of `COc1cc2c(cc1C(=O)Nc1ccc(Br)cc1)nc(Nc1cc(C(F)(F)F)ccc1C(F)(F)F)n2C` [Example 640, 2-(2,5-Di-(trifluoromethyl)-phenylamino)-N-(4-bromphenyl)-6-methoxy-1-methyl-1H-benzimidazol-5-carboxamide], the inhibition at 10 µM amounted to 100%.

On to `Cn1c(Nc2c(Cl)cccc2Cl)nc2cc(C(=O)Nc3cc(N4CCCCC4)ccn3)c(F)cc21` [Example 533, 2-(2,6-Dichlorophenylamino)-6-fluoro-1-methyl-N-(4-(piperidin-1-yl)-pyridin-2-yl)-1H-benzimidazole-5-carboxamide], for which the inhibition at 10 µM is 91%.

On to `Cn1c(Nc2c(Cl)cccc2Cl)nc2cc(C(=O)NCc3ccccn3)c(F)cc21` [Example 548, 2-(2,6-Dichlorophenylamino)-6-fluoro-1-methyl-N-(pyridin-2-ylmethyl)-1H-benzimidazole-5-carboxamide], for which the inhibition at 10 µM was 93%.

On to `Cn1c(Nc2c(Cl)cccc2Cl)nc2cc(C(=O)NCC3CCCOC3)ccc21` (centres unmarked) [Example 251, 2-(2,6-Dichloro-phenylamino)-1-methyl-1H-benzimidazole-5-carboxylic acid (tetrahydro-pyran-3-ylmethyl)-amide], for which the inhibition at 10 µM was 71%.

With `O=C(Nc1ccc(I)cc1)c1cc2nc(Nc3c(Cl)cccc3Cl)[nH]c2cc1Cl` [Example 57, 2-(2,6-Dichloro-phenylamino)-6-chloro-1H-benzimidazol-5-carboxylic acid (4-iodo-phenyl)-amide], the inhibition at 10 µM is 96%.

On to `C[C@@H]1CCC(NC(=O)c2cc3nc(Nc4c(Cl)cccc4Cl)n(C)c3cc2F)C1` (stereo partly drawn) [Example 175, 2-(2,6-Dichloro-phenylamino)-6-fluoro-1-methyl-1H-benzimidazole-5-carboxylic acid ((3R)-3-methyl-cyclopentyl)-amide], for which the inhibition at 10 µM was 100%.

On to `Cn1c(Nc2c(F)cccc2Cl)nc2cc(C(=O)NC3CCC4(CC3)CC4)ccc21` [Example 441, 2-(2-Chloro-6-fluorophenylamino)-1-methyl-N-(spiro[2.5]octan-6-yl)-1H-benzimidazole-5-carboxamide], for which the inhibition at 10 µM amounted to 97%.

Consider `COCCn1c(Nc2c(Cl)cccc2Cl)nc2cc(C(=O)NC3CCC(C)(C)CC3)ccc21` [Example 180, 2-(2,6-Dichloro-phenylamino)-1-(2-methoxy-ethyl)-1H-benzimidazole-5-carboxylic acid (4,4-dimethyl-cyclohexyl)-amide], for which the inhibition at 10 µM stood at 98%.

As to `O=C(NC1CCC2(CC1)CC2)c1cc2nc(Nc3c(Cl)cccc3Cl)[nH]c2cc1F` [Example 387, 2-(2,6-Dichlorophenylamino)-6-fluoro-N-(spiro[2.5]octan-6-yl)-1H-benzimidazole-5-carboxamide], the inhibition at 10 µM was determined as 100%.

Consider `COc1cc2[nH]c(Nc3c(Cl)cccc3Cl)nc2cc1C(=O)NCc1ncccc1C(F)(F)F` [Example 383, 2-(2,6-Dichlorophenylamino)-6-methoxy-N-((3-trifluoromethyl-pyridin-2-yl)-methyl)-1H-benzimidazole-5-carboxamide], for which the inhibition at 10 µM came to 100%.
